# In patent publication US20200087314A1, “HISTONE DEACETYLASE INHIBITORS” (BIOMARIN PHARMACEUTICAL INC., priority 2016, published 2020):
# System: Frataxin (FXN) mRNA expression
# Test: Effect of HDAC inhibitors on frataxin (FXN) mRNA expression in iPSC derived neuronal cells (qRT-PCR)
# Format: cell-based
# Conditions: iPSC derived neuronal cells differentiated 16 days, compound incubated 24 h
# Experimental: Effect of HDAC Inhibitors on Frataxin (FXN) mRNA Expression
# Method: mRNA quantification of compound-treated iPSC derived neuronal cells Neuronal stem cells were cultured in Neurobasal A medium (Life technologies #10888022) supplemented with N2, B27 (Life technologies #17502-048 and #17504-044), L-glutamine (Life technologies #25030081), supplemented with 20 ng/ml EGF (R&D Systems #236-EG) and 20 ng/ml bFGF (BioPioneer # HRP-0011). Neuronal differentiation was initiated by removing growth factors and culturing cells in Neurobasal A with N2 and B27. Cells were allowed to differentiate for 16 days. HDAC inhibitory compound was then added and incubate for 24 h. RNA isolation was performed using the RNeasy Plus mini kit (QIAgen #74134) using a QIAcube instrument per manufacturer's instructions. qRT-PCR was performed using qScript One-Step SYBR Green qRT-PCR Kit (Quanta Biosciences 170-8893BR) with the following conditions: 20 minutes at 50° C., 5 minutes at 95° C., and then 40 cycles of 20 seconds at 95° C., 20 seconds at 55° C., 30 seconds at 72° C. The primer sequences to detect expression of FXN were: 5′-[…]-3′ and 5′-[…]-3′.
# Data for additional compounds for iPSC fold inductions and cLogP are shown in Table 4 The ranges reported for cLogP refer to the following. A<1, 1<B<2, 2<C<3, 3<D<5, E>5. NA refers to “not available.”
smiles,measurement,value
"Nc1ccccc1NC(=O)c1ccc(CN2CCC2)cc1 [Compound 176, N-(2-aminophenyl)-4-(azetidin-1-ylmethyl)benzamide]",Fold Induction,1.5
"Nc1cc(F)ccc1NC(=O)c1ccc(CC2CCN(CC3CC3)CC2)cc1 [Compound 163, N-(2-amino-4-fluorophenyl)-4-((1-(cyclopropylmethyl)piperidin-4-yl)methyl)benzamide]",Fold Induction,1.2
"CC(C)(O)CN1CCN(Cc2ccc(C(=O)Nc3ccccc3N)cc2)C(C)(C)C1 [Compound 492, N-(2-aminophenyl)-4-((4-(2-hydroxy-2-methylpropyl)-2,2-dimethylpiperazin-1-yl)methyl)benzamide]",Fold Induction,1.2
